Results published in article PMC8946696, “27-Hydroxycholesterol Binds GPER and Induces Progression of Estrogen Receptor-Negative Breast Cancer” (Cancers, 2022).

Target: T1, G Protein-Coupled Estrogen Receptor (GPER, GPR30) (Homo sapiens, UniProt Q99527)
T1 construct: gene GPER1; plasma membranes of HEK293 cells stably transfected with GPER
Test: [3H]E2 competitive radioligand binding to plasma membranes of GPER-transfected HEK293 cells

T1 sequence (Q99527 whole entry): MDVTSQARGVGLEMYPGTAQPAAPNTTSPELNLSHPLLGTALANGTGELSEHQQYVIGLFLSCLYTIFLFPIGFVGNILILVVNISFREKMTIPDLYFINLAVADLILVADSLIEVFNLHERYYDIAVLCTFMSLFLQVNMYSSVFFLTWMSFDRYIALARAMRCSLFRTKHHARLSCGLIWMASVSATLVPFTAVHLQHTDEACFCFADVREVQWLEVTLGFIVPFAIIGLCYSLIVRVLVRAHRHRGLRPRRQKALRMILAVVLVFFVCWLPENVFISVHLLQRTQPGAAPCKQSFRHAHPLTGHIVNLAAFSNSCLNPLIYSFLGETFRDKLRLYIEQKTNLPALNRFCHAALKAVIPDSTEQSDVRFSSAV

## C[C@@H](CO)CCC[C@@H](C)[C@H]1CC[C@H]2[C@@H]3CC=C4C[C@@H](O)CC[C@]4(C)[C@H]3CC[C@]12C [27HC, 27-hydroxycholesterol]
  IC50: 500 to 800 nM
